From patent US20240287132A1, “PEPTIDE, COMPOSITION, AND GHRELIN SECRETION PROMOTING AGENT” (KYOTO UNIVERSITY, priority 2019, published 2024)

Tests used:
male ddY mice [1] = assay: Evaluation 1 of eating behavior of mice (feed intake over 4 hours); type: in vivo; details: 11 weeks old male ddY mice, single oral dose 1 mg/kg, 4 hours after feeding, vs saline control, FIG. 5A
Method: Mice (11 weeks old male ddY mice) were orally administered with a single dose of a saline solution of the peptide of SEQ ID NO: 1 (1 mg/kg). Subsequently, a previously weighed feed (CE-2 (trade name) manufactured by CLEA Japan, Inc.) was given to the mice, and 4 hours after the feeding, the weight of the remaining feed was measured. A control test was also carried out in which the same procedure was carried out as shown above except that a single dose of saline was orally administered instead of the peptide of SEQ ID NO: 1. The amount of feed intake (g/4 hours) was defined as the difference between the weight of the feed given to the mice and the weight of the feed remaining 4 hours after the feeding.

[2] = tested on: Ghrelin-secreting cells (MGN3-1); assay: Ghrelin secretion activity evaluation (ghrelin in medium, ELISA); type: cell-based; details: MGN3-1 cells; for ghrelin secretion (ghrelin concentration in medium): peptide concentration 0.01, 0.1, or 1 mM, FIG. 2, n=4; for significance of ghrelin secretion promoting effect: peptide concentration of 1 mM or more, FIG. 2
Method: (§1) Ghrelin-secreting cells (MGN3-1) were seeded at 1×10^5 cells/well onto a 96-well plate and cultured in a sodium octanoate/DMEM medium at 37° C. for 24 hours. After the cultivation, the cells were washed with DPBS. A buffer solution of each peptide was prepared and, 100 μL of the buffer solution (with a peptide concentration of 1 mg/mL or 10 mg/mL) was added to the cells. The cells were further cultured at 37° C. for 4 hours. The buffer used contained 50 μM of sodium octanoate in DMEM.
Unless otherwise stated, all tests shown below were performed using, as a control, a culture obtained in the same manner as shown above except that only the buffer was added instead of the buffer solution of the peptide.
After the cultivation, the medium sample was collected and centrifuged to give a supernatant. Subsequently, 10 μL of 1 N HCl was added to the supernatant, and the resulting sample was stored at −80° C. until it was subjected to the ghrelin concentration measurement shown below.
The concentration of ghrelin in each medium sample was measured using an ELISA kit (Ghrelin (Acylated) EIA Kit A05117 (trade name) manufactured by Bertin Pharma SAS). The results shown in FIG. 1 are values relative to the measured value of the control.
The two peptides were evaluated for their effect on ghrelin secretion by the same method as shown above (Ghrelin Secretion Activity Evaluation 1).

[3] = tested on: Ghrelin-secreting cells (MGN3-1); assay: Evaluation of intracellular calcium ion level; type: cell-based; details: data not shown
Method: The intracellular calcium ion level was measured using Calcium Kit II-Fluo 4 (Dojindo Laboratories) and a multi-plate reader (manufactured by BMG LABTECH GmbH, Aex: 485 nm, Xem: 520 nm).

[4] = tested on: Ghrelin-secreting cells (MGN3-1); assay: Intracellular ghrelin level (Ghrelin Secretion Activity Evaluation 3); type: cell-based; details: MGN3-1 cells, FIG. 3A, n=4 or 5
Method: as §1
The peptide of SEQ ID NO: 1 was evaluated for its effect on ghrelin secretion (intracellular ghrelin level) by the same method as shown above (Ghrelin Secretion Activity Evaluation 1).

male ddY mice [5] = assay: Evaluation 2 of eating behavior of mice (feed intake over 2 hours); type: in vivo; details: 7 weeks old male ddY mice, single oral dose 1 mg/kg, 2 hours after feeding, FIG. 6, *: P<0.05 relative to the control
Method: Mice (7 weeks old male ddY mice acclimated for at least 1 week before use after being purchased) were orally administered with a single dose of a saline solution of each peptide (1 mg/kg). Subsequently, a previously weighed feed (CE-2 (trade name) manufactured by CLEA Japan, Inc.) was given to the mice, and 2 hours after the feeding, the weight of the remaining feed was measured. A control test was also carried out in which the same procedure was carried out as shown above except that a single dose of saline was orally administered instead of each peptide. The amount of feed intake (g/2 hours) was defined as the difference between the weight of the feed given to the mice and the weight of the feed remaining 2 hours after the feeding. Based on the results, the amount of feed intake in the control group was normalized to 100, and the amount of feed intake in each group was calculated relative to 100. The results are shown in FIG. 6 (n=7 to 18, *: P<0.05 relative to the control).

[6] = tested on: Ghrelin-secreting cells (MGN3-1); assay: Evaluation of intracellular CAMP level; type: cell-based; details: MGN3-1 cells, 0.5 mM IBMX, 37° C. 30 minutes, FIG. 4
Method: Ghrelin-secreting cells (MGN3-1) were […] in a Krebs-Ringer-HEPES buffer containing 0.5 mM IBMX. After the mixture was incubated at 37° C. for 30 minutes, the intracellular CAMP was quantified using HitHunter CAMP Assay for Small Molecules (manufactured by DiscoveRx).

[7] = tested on: ghrelin synthesis-related genes (Preproghrelin, GOAT, and PC3); assay: Evaluation of ghrelin synthesis-related gene expression (qPCR); type: cell-based; details: MGN3-1 cells, FIGS. 3B, 3C, 3D, n=4 or 5
Method: The expression levels of the three, ghrelin synthesis-related genes (Preproghrelin, GOAT, and PC3) in the cells obtained after the completion of the cultivation shown above (Ghrelin Secretion Activity Evaluation 1) were measured by the method shown below. First, mRNA was extracted from the cells using RNeasy Mini Kit (manufactured by QIA-GEN) and Takara PrimeScript RT Master Mix (manufactured by Takara Bio Inc.). Subsequently, the mRNA expression level was measured through the amplification of cDNA using LightCycler 96 System (manufactured by Roche Diagnostics K.K.) and THUNDERBIRD qPCR Mix (manufactured by Toyobo Co., Ltd.). The results are shown in FIG. 3B (Preproghrelin), FIG. 3C (GOAT), and FIG. 3D (PC3) (n=4 or 5).

male ddY mice [8] = assay: Evaluation of mouse serum ghrelin level; type: in vivo; details: 11 weeks old male ddY mice, 0.3 mg/kg, 1 hour after administration, FIG. 5B
Method: Mice (11 weeks old male ddY mice) were administered with a saline solution of the peptide of SEQ ID NO: 1 (0.3 mg/kg). Subsequently, 1 hour after the administration, blood was collected from the orbital vein of the mice and centrifuged at 4° C. at 1,120×g for 10 minutes. The resulting supernatant was acidified with 1 N HCl and then measured for serum ghrelin level (pg/ml) using an acylated ghrelin enzyme immunoassay kit.

Which “amount of feed intake” value (male ddY mice [1]) does the source give for QAFEPIRSV [SEQ ID NO: 1] here?
Its value is “increased”.

And the extracellular ghrelin level ([2]; data not shown)?
Its extracellular ghrelin level is “increased”.

And the “ghrelin secretion (ghrelin concentration in medium)” value [2]?
Its value is “ghrelin secretion promoting effect”.

And the “significance of ghrelin secretion promoting effect” value [2]?
The value was “significant”.

What about the “intracellular calcium ion level” value [3] of the same substance?
The value was “no effect”.

And the intracellular ghrelin level [4]?
Its intracellular ghrelin level is “tendency to reduce”.

And the “amount of feed intake relative to control (control normalized to 100)” value (male ddY mice [5])?
The value was “increased”.

And the “intracellular CAMP level” value [6]?
Its value is “no effect”.

What about the “expression levels of the ghrelin synthesis-related genes (Preproghrelin, GOAT, PC3 mRNA)” value [7] of the same substance?
Its value is “not found to change”.

What about the serum ghrelin level (male ddY mice [8]) of the same substance?
Its serum ghrelin level is “increased”.

Which “amount of feed intake relative to control (control normalized to 100)” value (male ddY mice [5]) does the source give for HSPR [SEQ ID NO: 6] here?
The value was “significantly increased”.

Which “ghrelin secretion (ghrelin concentration in medium)” value [2] does the source give for “TNPWHSPROGSF (TNPWHSPRQGSF) [SEQ ID NO: 2]” here?
The value was “ghrelin secretion promoting effect”.

What about the “significance of ghrelin secretion promoting effect” value [2] of the same substance?
The value was “significant”.

And the “amount of feed intake relative to control (control normalized to 100)” value (male ddY mice [5])?
Its value is “increased”.

Which “amount of feed intake relative to control (control normalized to 100)” value (male ddY mice [5]) does the source give for TNPW [SEQ ID NO: 5] here?
The value was “significantly increased”.

With QAFE [SEQ ID NO: 3] as the substance, how does the “amount of feed intake relative to control (control normalized to 100)” value (male ddY mice [5]) read?
The value was “significantly increased”.

QGSF [SEQ ID NO: 7] was tested. Which “amount of feed intake relative to control (control normalized to 100)” value (male ddY mice [5]) did it give?
The value was “significantly increased”.
